Data on 14 molecules can be found in patent publication US8546416B2, “3-spirocyclic piperidine derivatives as ghrelin receptor agonists” (Novartis AG, priority 2011, dated 2013).

Series [1] is described as follows: Aqueous solubility of crystalline L-malate salt forms compared to free base amorphous form. In kind it is physicochemical. The conditions noted are these: crystalline L-malate salt compared to the free base amorphous form.
Series [2] deals with T1, human recombinant ghrelin receptor (GHS-R1a) (Homo sapiens, UniProt Q92847).
T1 construct: host or cells: CHO-K1
Briefly: hGHS-R1a Ca assay (Fluo-4 calcium assay in CHO-K1 cells). In kind it is cell-based. The conditions noted are these: for EC50: CHO-K1 cells expressing human GHS-R1a, agonist dose response up to 30 μM. As for the experimental part:
(§1) Chinese hamster ovary (CHO-K1) cells expressing human recombinant ghrelin receptor (GHS-R1a) were purchased from Euroscreen (ES-410-C) and propagated in UltraCHO medium containing glutamine and supplemented with 1% heat inactivated foetal calf serum (FCS), 100 U/ml penicillin, 100 mg/l streptomycin and 0.8 g/l geneticin. Cells were sub-cultured twice a week with a 1:10 dilution. For passaging, cells were washed with 1×DPBS without calcium and magnesium, trypsinised for 10 min with 0.05% Trypsin/EDTA and resuspended in cell culture medium.
Cells were diluted to achieve 1×10^6 cells/ml, seeded in 384-well black clear bottom CellBind plates at 25000 cells/well (25 ul) and incubated overnight at 37° C./5% CO2 Cells were expected to be 85-90% confluent on the day of assay (checked under the microscope) to ensure a high quality assay. Media was manually removed and 40 μl of loading solution containing probenecid and Fluo-4 no wash dye (a calcium indicator, Invitrogen F36206) were added to each well. After 30 min at 37° C. followed by another 30 min at RT, cpds were added to the wells. To generate a dose response up to 30 μM, 10 mM compound stocks in 100% (v/v) DMSO were firstly diluted in 50% (v/v) DMSO. Then, serial dilutions aimed at a full logarithmic dose responses (8 point) were performed in assay buffer [1×HBSS, 20 mM Hepes, 0.1% (w/v) BSA] to give 2.5% (v/v) DMSO and 5× final compound concentrations. The final assay DMSO concentration was 0.5% (v/v). After loading the cells with Fluo-4 containing solution, plates were read on a CellLux instrument (Perkin Elmer). A protocol set up to add 10 μl of 5× compound and to read the plate for 60 sec after adding the compound at 17th sec was used. Fluorescence excitation took place at 494 nm and emission at 516 nm. EC50 values of agonists were calculated by fitting the percent stimulation over background [(Max−Min)/Min] using the nonlinear logistic function of the Prism 5 software (GraphPad, USA).

Series [3] deals with T1, human recombinant ghrelin receptor (GHS-R1a). The series is described as follows: hGHS-R1a cAMP assay (HTRF cAMP dynamic 2 kit, CHO-hGHS-R1a cells). Format: cell-based. The note with it: 60 min incubation, dose response up to 30 μM. As for the experimental part:
as §1
The Homogeneous Time-Resolved Fluorescence (HTRF) cAMP dynamic 2 kit (Cisbio International, France) was used as follows. CHO-hGHS-R1a or CHO-rGHS-R1a cells were seeded in a volume of 25 μl culture media at 10,000 cells/well (400,000 cells/ml) in Greiner white 384-well high volume plates and incubated overnight (18-24 h) at 37° C./5% CO2. Then, media was removed and 6 μl assay buffer [HBSS, 10 mM Hepes, 0.2% (w/v) BSA, 1.7 mM IBMX, (pH7.4)] were added to the wells. To generate a dose response up to 30 μM, 10 mM compound stocks in 100% (v/v) DMSO were firstly diluted in 50% (v/v) DMSO followed by a further dilution into assay buffer. Then, 4 μl of 2.5× compound (dose response as 9 point log serial dilution in assay buffer from 30 μM as maximum concentration) were added to each well achieving a final DMSO assay concentration of 0.8% (v/v). 0.1 μM forskolin was added as positive control. After 30 min (rGHS-R1a cell line) or 60 min (hGHS-R1a cell line) incubation at 37° C./5% CO2, 5 μl of cAMP-d2 and 5 μl of anti-cAMP antibody-cryptate, (both made in lysis buffer), were added to the plate followed by 1 h incubation at RT. During this time, cAMP produced by the cells competed with cAMP-d2 for the anti-cAMP antibody-cryptate molecule. Then, the plate was read on the Pherastar instrument (BMG, Germany) at two different emission wavelengths (620 and 650 nm). Increasing levels of endogenous cAMP produced by cells could be followed by a decrease of FRET fluorescent signal and viceversa. Values represented by a change in arbitrary fluorescence ratios (665/620) were converted into cAMP concentrations by using a standard curve, the reagents for which were supplied with the kit. EC50 values of agonists were calculated using the nonlinear logistic function of the Prism 5 software (GraphPad, USA). Emax were expressed as relative values of the ghrelin response, which was defined as 100%.
In general terms: cAMP levels reflect the balance of adenylyl cyclase and phosphodiesterase activity.

T1 sequence (Q92847 whole entry): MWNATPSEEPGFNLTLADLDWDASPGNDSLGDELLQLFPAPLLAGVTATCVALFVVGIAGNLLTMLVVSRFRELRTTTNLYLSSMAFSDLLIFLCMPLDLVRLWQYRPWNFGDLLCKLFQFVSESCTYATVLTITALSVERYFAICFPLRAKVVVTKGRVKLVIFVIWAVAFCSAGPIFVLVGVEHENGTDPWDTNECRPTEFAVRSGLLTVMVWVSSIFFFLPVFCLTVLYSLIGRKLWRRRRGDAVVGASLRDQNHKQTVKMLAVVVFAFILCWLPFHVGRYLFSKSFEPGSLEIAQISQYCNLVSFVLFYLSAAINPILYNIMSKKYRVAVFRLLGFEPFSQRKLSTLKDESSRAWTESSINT

On to `CN1C[C@@H](c2ccccc2)[C@@]2(CCCN(C(=O)[C@@H](COCc3ccccc3)NC(=O)C(C)(C)N)C2)C1=O.O=C(O)C[C@H](O)C(=O)O` [2-Amino-N-[(R)-1-benzyloxymethyl-2-((4S,5R)-2-methyl-1-oxo-4-phenyl-2,7-diaza-spiro[4.5]dec-7-yl)-2-oxo-ethyl]-2-methyl-propionamide L-malate salt], for which, in series [1], the aqueous solubility result is on record as “increased aqueous solubility”.

`Cc1ccc(C2CN(C)C(=O)C23CCCN(C(=O)[C@@H](COCc2ccccc2)NC(=O)C(C)(C)N)C3)cc1.O=C(O)C[C@H](O)C(=O)O` (stereo partly drawn) [2-amino-N-((2R)-3-(benzyloxy)-1-(2-methyl-1-oxo-4-p-tolyl-2,7-diazaspiro[4.5]decan-7-yl)-1-oxopropan-2-yl)-2-methylpropanamide L-malate salt]: the aqueous solubility entry in series [1] was “increased aqueous solubility”.

`CC(C)(N)C(=O)N[C@H](COCc1ccccc1)C(=O)N1CCCC2(C1)C(=O)NCC2c1ccccc1` (single isomer, unassigned) [Example 1.49]: the Emax (as a rule, the greatest response seen or fitted, relative to the assay's reference) in series [2] (CHO-K1, relative to Emax induced by MK-0677 (defined as 100%)) was found to be 93%. Further, the EC50 (in general, the concentration needed to bring the measured effect to its halfway point) amounted to 0.0006 µM in series [2] and 0.154 µM in series [3].

`CC(C)N1CC(c2ccc(F)cc2)C2(CCCN(C(=O)[C@@H](Cc3cn(C)c4ccccc34)NC(=O)C(C)(C)N)C2)C1=O` (single isomer, unassigned) [Example 1.15]: the EC50 in series [2] came out at 0.0016 µM; in series [3] it was 0.128 µM.

Turning to `CC(C)(C)CN1CC(c2ccccc2)C2(CCCN(C(=O)[C@@H](COCc3ccccc3)NC(=O)C(C)(C)N)C2)C1=O` (stereo partly drawn) [Example 1.75, 2-amino-N-((2R)-3-(benzyloxy)-1-(2-neopentyl-1-oxo-4-phenyl-2,7-diazaspiro[4.5]decan-7-yl)-1-oxopropan-2-yl)-2-methylpropanamide], the concentration giving a half-maximal response (EC50) in series [2] came out at 0.0036 µM; in series [3], 0.302 µM.

`CC(C)(C)CN1CC(c2ccccc2)C2(CCCN(C(=O)[C@@H](COCc3ccccc3)NC(=O)C(C)(C)N)C2)C1=O` (single isomer, unassigned) [Example 1.40]: the EC50 was 0.0007 µM in series [2] and 0.034 µM in series [3].

Turning to `COc1ccc(C2CN(C)C(=O)C23CCCN(C(=O)[C@@H](COCc2ccccc2)NC(=O)C(C)(C)N)C3)cc1` (stereo partly drawn) [Example 1.74, 2-amino-N-((2R)-3-(benzyloxy)-1-(4-(4-methoxyphenyl)-2-methyl-1-oxo-2,7-diazaspiro[4.5]decan-7-yl)-1-oxopropan-2-yl)-2-methylpropanamide], the EC50 in series [2] is 0.0054 µM; in series [3], 5.9 µM.

`CN1CC(c2ccccc2)C2(CCCN(C(=O)[C@@H](CCc3ccccc3)NC(=O)C(C)(C)N)C2)C1=O` (single isomer, unassigned) [Example 1.28]: the EC50 in series [2] amounted to 0.00065 µM; in series [3], 0.141 µM.

Turning to `CN1C[C@@H](c2ccc(F)cc2)[C@@]2(CCCN(C(=O)[C@@H](COCc3ccccc3)NC(=O)C(C)(C)N)C2)C1=O.O=C(O)C[C@H](O)C(=O)O` [2-amino-N-((2R)-3-(benzyloxy)-1-((4S,5R)-4-(4-fluorophenyl)-2-methyl-1-oxo-2,7-diazaspiro[4.5]decan-7-yl)-1-oxopropan-2-yl)-2-methylpropanamide L-malate salt], in series [1], the aqueous solubility result is reported as “increased aqueous solubility”.

Turning to `Cc1ccc(C2CN(C)C(=O)C23CCCN(C(=O)[C@@H](COCc2ccccc2)NC(=O)C(C)(C)N)C3)cc1` (single isomer, unassigned) [Example 1.53], the EC50 was 0.00011 µM in series [2] and 0.036 µM in series [3].

With `CN1CC(c2ccccc2)C2(CCCN(C(=O)[C@@H](COCc3ccc(F)cc3)NC(=O)C(C)(C)N)C2)C1=O` (single isomer, unassigned) [Example 7.0, 2-Amino-N-[(R)-1-(4-fluoro-benzyloxymethyl)-2-(4S,5R)-2-methyl-1-oxo-4-phenyl-2,7-diaza-spiro[4.5]dec-7-yl)-2-oxo-ethyl]-2-methyl-propionamide or 2-Amino-N-[(R)-1-(4-fluoro-benzyloxymethyl)-2-(4R,5S)-2-methyl-1-oxo-4-phenyl-2,7-diaza-spiro[4.5]dec-7-yl)-2-oxo-ethyl]-2-methyl-propionamide], the EC50 in series [2] is 0.00017 µM; in series [3], 0.138 µM.

As to `CN1CC(c2ccc(Cl)cc2)C2(CCCN(C(=O)[C@@H](COCc3ccccc3)NC(=O)C(C)(C)N)C2)C1=O` (single isomer, unassigned) [Example 1.8], the results for the EC50 in series [2] and in series [3] were 0.0003 µM and 0.162 µM, respectively.

In the case of `CN1CC(c2ccccc2)C2(CCCN(C(=O)[C@@H](COCc3ccccc3)NC(=O)C(C)(N)C(F)(F)F)C2)C1=O` (stereo partly drawn) [Example 1.73, 2-amino-N-((2R)-3-(benzyloxy)-1-(2-methyl-1-oxo-4-phenyl-2,7-diazaspiro[4.5]decan-7-yl)-1-oxopropan-2-yl)-3,3,3-trifluoro-2-methylpropanamide], the EC50 in series [2] is 3.32 µM; in series [3] it was no less than 30 µM.

In the case of `CC(C)(N)C(=O)N[C@H](COCc1ccccc1)C(=O)N1CCCC2(C1)C(=O)NCC2c1ccccc1` (single isomer, unassigned) [Example 1.4], the EC50 in series [2] amounted to 0.0002 µM; in series [3], 0.051 µM.
